Assay results: article PMC12703428, “Development of Granzyme A Turn‐ON Fluorescent Activity‐Based Probes” (Chembiochem, 2025)
Square brackets hold non-standard residues; d marks the D form. Ends that are not written are not given here. Oic = O=C(O)[C@@H]1C[C@@H]2CCCC[C@@H]2N1; Tic = O=C(O)[C@@H]1Cc2ccccc2CN1

Legend:
Type in all cases: biochemical
proteinase 3 (PR3) = target: T1, proteinase 3 (PR3) (Homo sapiens, UniProt P24158); assay: Cross-reactivity labeling, proteinase 3; details: protease 100 nM, probe 100 nM, 2 h, 37 °C, in-gel fluorescence
T1 sequence (P24158 28-256): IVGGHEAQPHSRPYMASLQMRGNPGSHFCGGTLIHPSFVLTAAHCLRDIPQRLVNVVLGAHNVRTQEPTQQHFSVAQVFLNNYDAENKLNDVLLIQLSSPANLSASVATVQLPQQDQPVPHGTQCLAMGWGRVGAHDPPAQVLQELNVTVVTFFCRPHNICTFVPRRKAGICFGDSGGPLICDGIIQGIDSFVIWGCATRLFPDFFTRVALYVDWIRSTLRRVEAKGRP
Description: Protease (100 nM) HNE PR3 GzmK GzmA
Protease (100 nM) GzmA GzmK
Supplementary Figure 2. Cross-reactivity of probes. (A) Labeling of GzmA, GzmK, PR3, and HNE
(100 nM, 2 h, 37 °C) by 100 nM of 5 and 6. (B) Labeling of GzmA and GzmK (100 nM, 2 h, 37 °C) by
100 nM of 3 – 6. (C) Concentration-dependent labeling of GzmA and GzmK (100 nM, 2 h, 37 °C) by 5 and
6. Protein samples were analyzed by SDS-PAGE and in-gel fluorescence scanning for Cy5 signal.
Protein loading was confirmed by SYPRO Ruby staining. […]

[1] = target: T2, GzmA in lysate of NK‐92 cells (Homo sapiens, UniProt P12544); assay: Labeling of GzmA in NK-92 cell lysate; details: 1 mg/mL lysate, various probe concentrations, 1 h, 37 °C, in-gel fluorescence
T2 construct: host or cells: NK-92
T2 sequence (P12544 29-262): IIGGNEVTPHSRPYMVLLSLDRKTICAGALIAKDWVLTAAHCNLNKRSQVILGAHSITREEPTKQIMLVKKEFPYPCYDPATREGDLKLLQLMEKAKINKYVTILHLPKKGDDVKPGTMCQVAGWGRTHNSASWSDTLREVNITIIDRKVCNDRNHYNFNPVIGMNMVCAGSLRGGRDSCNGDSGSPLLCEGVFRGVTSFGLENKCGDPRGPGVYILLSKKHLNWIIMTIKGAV
Description: (§1) Figure 4 Characterization of qABPs in native proteomes. A) Labeling of GzmA by 5 and 6 in lysates of various cell lines (1 h, 37 °C). B) Stability of 5 and 6 in buffer and cell media (11 h, 37 °C). The hydrolysis of probes was measured by monitoring the production of Cy5 fluorescence signal over time. […] C) Labeling of GzmA by probes 3 –6 in NK‐92 cells (2 h, 37 °C). D) Flow cytometry analysis of protein labeling in NK‐92 cells by 3 –5. […] E) Flow cytometry analysis of concentration‐dependent GzmA labeling in NK‐92 cells and S/N of 5 (5 μM, 2 h, 37 °C). […]
(§2) Briefly, hGzmA (50 nM) was incubated with either inhibitor 1 or 2 (200 nM), and GzmA fluorogenic substrate […] (100 µM) in 50 mM Tris, 150 mM NaCl, 0.01% Triton X-100 (pH 8) for 15 hr at 37 °C. Recorded fluorescence at Ex/Em: 380/460 nm for residual GzmA […]
(§3) Cat. No. CRL-2570) and 4T1 (ATCC Cat. No. CRL-2539) cells were cultured in RPMI supplemented with 10% fetal bovine serum (FBS), 1% penicillin/streptomycin (PS), and 2 mM L-glutamine, while HEK293T and MDA-MB-231 cells (ATCC Cat. No. HTB-26) were cultured in DMEM supplemented likewise as described above. […] The supernatant was collected, and protein concentration was measured using a Pierce BCA protein assay. […]
(§4) C. In-gel fluorescence imaging […]

[2] = system: lysates of MDA‐MB‐231, HEK293T, Jurkat, and HeLa cells; assay: Labeling in lysates of GzmA nonexpressing cells; details: HeLa lysates 1 mg/mL, 1 h, 37 °C
Description: as §1, §2, §3, §4

Substance	Labeling of PR3 (cross-reactivity) (proteinase 3 (PR3))	Labeling of GzmA in NK-92 lysate [1]	Cross-reactivity in lysates of GzmA nonexpressing cells [2]
[Tic]G[Oic]R [compound 6]	Neither probe 5 nor 6 showed detectable labeling	selectively labeled GzmA in a concentration‐dependent manner at low nanomolar levels	no detectable cross‐reactivity
IGNR [compound 5]	Neither probe 5 nor 6 showed detectable labeling	selectively labeled GzmA in a concentration‐dependent manner at low nanomolar levels	no detectable cross‐reactivity
